Results from patent US20090104246A1 (priority 2004, published 2009).

What was measured:
[1] = In vivo release kinetics from rapamycin/cladribine EVA/BMA coating on Bx Velocity stents, Yorkshire pigs; parameters: species or system porcine; conditions: 600 microgram basecoat, 200 microgram BMA topcoat
Source text: (§1) The basecoat is applied to Bx Velocity® stents and implanted into Yorkshire pigs.
as §1

[2] = test system: human coronary artery smooth muscle cells; assay: Anti-proliferative activity in non-synchronized cultured human coronary artery smooth muscle cells stimulated with two percent fetal bovine serum; assay type: cell-based; conditions: for effect on the anti-proliferative rapamycin dose response curve: agent added to rapamycin-treated non-synchronized cells, mycophenolic acid zero to one thousand nanomolar, cladribine zero to nine hundred nanomolar
Source text: The multiple curves represent various concentrations of mycophenolic acid ranging from zero to one thousand nanomolar concentrations.
FIG. 58 illustrates, in graphical format, the anti-proliferative activity of cladribine in non-synchronized cultured human coronary artery smooth muscle cells stimulated with two percent fetal bovine serum.
The multiple curves represent various concentrations of cladribine ranging from zero to nine hundred nanomolar concentrations.

[3] = test system: human smooth muscle cells; assay: Cladribine Example, PDGF-stimulated cell proliferation (cell count), smooth muscle cells; assay type: cell-based; conditions: from the IC50 values
Experimental: To assess the ability of cladribine to prevent cell proliferation, human smooth muscle or endothelial cells (Clonetics, Walkersville, Md.) were seeded at a density of 2000 cells/cm^2 (approximately 3600 cells/well) into each well of 12-well plates and cultured with 1.5 ml of growth medium containing five percent fetal calf serum (FCS). After twenty-four hours, the growth medium was changed and fresh medium containing 10 ng/ml platelet-derived growth factor AB (PDGF AB; LIFE Technologies), as well as various concentrations of cladribine (0.001-10,000 nM) were added with triplicate wells. Medium was replaced with fresh cladribine-containing medium after three days. On day six, cells were detached by trypsinization to yield a cell suspension, lightly centrifuged to pellet and then counted manually using a Neubauer hemocytometer system. Cell viability was assessed by trypan blue exclusion.

[4] = test system: human coronary artery smooth muscle cells; assay: Anti-proliferative activity in synchronized cultured human coronary artery smooth muscle cells stimulated with two percent fetal bovine serum; assay type: cell-based; conditions: for effect on the anti-proliferative rapamycin dose response curve: agent added to rapamycin-treated synchronized cells, topotecan to 300 nanomolar, etoposide to eight hundred nanomolar, Panzem to 100 micromolar
Source text: (§2) The multiple curves represent various concentrations of topotecan ranging from zero to three hundred nanomolar concentrations.
(§3) The multiple curves represent various concentrations of etoposide ranging from zero to eight hundred nanomolar concentrations.
The multiple curves represent various concentrations of Panzem® ranging from zero to 100 micromolar concentrations.

cell viability = assay: Cell viability assay; assay type: cell-based
Source text: as §2, §3

[5] = test system: human coronary artery smooth muscle cell survival; conditions: 6.6 nanomolar to 30,000.00 nanomolar
Source text: In vitro cytotoxicity tests or assays may be utilized to determine if drugs, agents and/or compounds are potentially toxic and the level of toxicity. Essentially, in vitro cytotoxicity assays determine acute necrotic effects by a drug causing direct cellular damage. The idea behind these assays is that toxic chemicals affect basic functions of cells which are common to all cells. […] There are a number of different assays that may be utilized. In the present invention, the cytotoxicity assay utilized is based upon the measurement of cellular metabolic activity. A reduction in metabolic activity is an indication of cellular damage. Tests that can measure metabolic function measure cellular ATP levels or mitochondrial activity via MTS metabolism. FIG. 69 is a graphical representation of the results of an MTS assay of Panzem®.

[6] = Liquid formulations of sirolimus with PEG 200, ethanol and water; concentrations by liquid chromatography; assay type: physicochemical; conditions: 4 mg/ml formulation with PEG 200, ethanol and water
Source text: In accordance with exemplary embodiments of the present invention, a series of liquid formulations were developed for the local or regional delivery of water insoluble compounds such as sirolimus and its analogs, including CCl-779, ABT-578 and everolimus, through weeping balloons and catheter injection needles. […] These liquid formulations increase the apparent solubility of the pharmacologically active but water insoluble compounds by two to four orders of magnitude as compared to the solubility limits of the compounds in water. These liquid formulations rely on the use of a very small amount of organic solvents such as Ethanol (typically less than two percent) and a larger amount of safe amphiphilic (of or relating to a molecule having a polar, water soluble group attached to a non-polar, water insoluble […]) excipients such as polyethylene glycol (PEG 200, PEG 400) and vitamin E TPGS to enhance the solubility of the compounds. These liquid formulations of highly water insoluble compounds are stable and readily flowable at room temperature. Certain excipients, such as Vitamin E TPGS and BHT may be utilized to enhance the storage stability of sirolimus compounds through their anti-oxidation properties. […]

[7] = In vivo release kinetics from rapamycin/mycophenolic acid EVA/BMA coating, porcine pharmacokinetics studies; conditions: 180 micrograms each of rapamycin and mycophenolic acid in 600 microgram basecoat, with or without BMA topcoat
tumor cell lines = conditions: cited from earlier work
[8] = test system: human coronary artery smooth muscle cell proliferation; assay: In vitro cell culture study of coronary artery smooth muscle cell proliferation; assay type: cell-based
Source text: FIG. 51 is a graph of the inhibition of coronary artery smooth muscle cells by trichostatin A in a cell culture study.

## Nc1nc(Cl)nc2c1ncn2[C@H]1C[C@H](O)[C@@H](CO)O1 [Cladribine, 2-chlorodeoxyadenosine]
[1]
  in vivo elution from EVA/BMA basecoat compared with rapamycin: elutes more rapidly than rapamycin
[2]
  effect on the anti-proliferative rapamycin dose response curve: potentiate the anti-proliferative activity of rapamycin
[2]; non-synchronized cells, two percent fetal bovine serum
  inhibition of human coronary artery smooth muscle cell proliferation: completely inhibits
[3]
  potency on smooth muscle cells relative to endothelial cells: approximately twice as potent

## COc1cc([C@@H]2c3cc4c(cc3[C@@H](O[C@@H]3O[C@@H]5CO[C@@H](C)O[C@H]5[C@H](O)[C@H]3O)[C@H]3COC(=O)[C@H]23)OCO4)cc(OC)c1O [Etoposide, etoposide]
[4]
  effect on the anti-proliferative rapamycin dose response curve: potentiate the anti-proliferative activity of rapamycin
Cell viability; concentrations up to ten micromolar
  cytotoxicity in cell viability assay: non-cytotoxic

## COc1cc2c(cc1O)CC[C@@H]1[C@@H]2CC[C@]2(C)[C@@H](O)CC[C@@H]12 [Panzem®, 2-methoxyestradiol]
[4]
  effect on the anti-proliferative rapamycin dose response curve: increases the percent of inhibition of rapamycin alone
[4]; synchronized cells, two percent fetal bovine serum
  anti-proliferative activity alone: extremely effective inhibitor
[5]
  cytotoxicity (MTS assay): do not reduce human coronary artery smooth muscle cell survival

## CO[C@H]1C[C@@H]2CC[C@@H](C)[C@@](O)(O2)C(=O)C(=O)N2CCCC[C@H]2C(=O)O[C@H]([C@H](C)C[C@@H]2CC[C@@H](O)[C@H](OC)C2)CC(=O)[C@H](C)/C=C(\C)[C@@H](O)[C@@H](OC)C(=O)[C@H](C)C[C@H](C)/C=C/C=C/C=C/1C [Rapamycin, rapamycin]
[6]
  concentration relative to the solubility of sirolimus in water: about four hundred to about one thousand times higher

## CC[C@@]1(O)C(=O)OCc2c1cc1n(c2=O)Cc2cc3c(CN(C)C)c(O)ccc3nc2-1 [Topotecan, topotecan]
[4]
  effect on the anti-proliferative rapamycin dose response curve: potentiate the anti-proliferative activity of rapamycin
Cell viability; concentrations up to one micromolar
  cytotoxicity in cell viability assay: non-cytotoxic

## COc1c(C)c2c(c(O)c1C/C=C(\C)CCC(=O)O)C(=O)OC2 [mycophenolic acid]
[2]
  effect on the anti-proliferative rapamycin dose response curve: potentiates the anti-proliferative activity of rapamycin
[7]
  in vivo elution from EVA/BMA basecoat compared with rapamycin: elutes more completely over a shorter duration than the rapamycin

## CC(/C=C/C(=O)NO)=C\[C@@H](C)C(=O)c1ccc(N(C)C)cc1 [trichostatin A]
Tumor cell lines
  anti-proliferative IC50: low nM range
[8]; human coronary artery smooth muscle cells, read-out: anti-proliferative IC50
  IC50: ~6 nM
[8]; in vitro cell culture
  inhibition of human coronary artery smooth muscle cell proliferation: completely inhibit
